Read-outs that look alike come from different tables or passages of the source.
Key:
[1] = Stability in buffered solutions at pH 2.25, 2.5, 3.0 and 3.5, RP-HPLC purity and degradants (Example 6)
Procedure: In this study, the stability of a liquid formulation of AMG 416 under low pH conditions was investigated. Succinate-buffered saline (10 mM, pH 3.5) was prepared by dissolving 59 mg of succinic acid in 45 ml of lab processed (deionized) water and adjusting the pH to 3.5 using 1N HCl and 1N NaOH as needed, and q.s. to 50 ml. In the same way, a 10 mM, pH 3.5 sodium lactate (56 mg/50 mL) buffer solution was prepared.
NaCl (90 mg) was added to one portion and mannitol (500 mg) was added to the other. Each 10 mL portion was split again into two equal 5 mL portions and the pH was adjusted to 2.25 and 3.5, respectively, with 1N HCl and 1N NaOH. In the same way, four 5 mL solutions were prepared using lactate buffer. 1.0 mL of each of the (eight) resulting solutions was added to 3 serum sample vials. In addition, the remaining pH 2.25, succinate-buffered AMG 416 solution containing NaCl was adjusted to pH 2.5 and 0.5 mL aliquots were added to 3 serum sample vials and the remaining pH 3.5 succinate buffered solution with NaCl was adjusted to pH 3.0 and 0.5 mL aliquots were added to 3 serum sample vials.
At each time point (0, 2, 8, 12 and 24 weeks) all 30 samples were retrieved from storage, equilibrated to room temperature (about 25° C.), and a 100 μL aliquot was diluted to 0.5 mg/mL with water for RP-HPLC analysis. […]

[2] = Solution stability in different buffers (acetate, citrate, lactate, succinate), HPLC (Example 5); type: physicochemical; details: all buffers tested
Procedure: In this study, the stability of liquid formulations of AMG 416 was evaluated in four different buffers over 9 days. Buffered saline solutions were prepared at 25 mM concentration, pH 4.5, for four different anionic buffers in the sodium salt form: acetate, citrate, lactate and succinate. […] The solutions were diluted further with pH 4.5 buffer to 1.0 mg/mL and 0.25 mg/mL. Each of the resulting solutions was split to two glass HPLC vials, one stored at 2-8° C. and one at room temperature (about 25° C.). HPLC analysis was conducted at 0, 4 and 9 days for determination of potency and purity.

[3] = for Degradation at 2 y: 3.4 mg/mL in succinate-buffered saline
Procedure: In this study, the long term stability of a liquid formulation of AMG 416, at a concentration of 3.4 mg/mL, was determined over a range of pH in succinate-buffered saline. USP purified water (1200 mL) was dispensed into a glass beaker. Sodium succinate (4.05 g) and sodium chloride (13.5 g) were added and stirred to dissolve. The pH was adjusted to 2.5 with 1N NaOH and/or 1N HCl as required. […] The solution was divided into three portions and the pH for each portion was adjusted to 2.5, 3.0 and 3.5, respectively. Each solution was filtered separately through 0.22 micron PVDF filter and dispense 2 mL to 5-cc vials. After being stoppered, sealed, and labeled, the vials were place in designated stability chambers at 5° C.±3, 25° C.±2, and 40° C.±2. Samples were retrieved according to schedule and diluted with deionized water to 1.0 mg/mL for HPLC analysis.

CC(=O)N[C@H](CSSC[C@H](N)C(=O)O)C(=O)N[C@H](C)C(=O)N[C@H](CCCNC(=N)N)C(=O)N[C@H](CCCNC(=N)N)C(=O)N[C@H](CCCNC(=N)N)C(=O)N[C@H](C)C(=O)N[C@H](CCCNC(=N)N)C(N)=O [AMG 416, N-acetyl-D-cysteinyl-D-alanyl-D-arginyl-D-arginyl-D-arginyl-D-alanyl-D-arginamide disulfide with L-cysteine]
pH of maximal stability ([1]; 5 mg/mL solutions, Example 6): 3.0±0.5 | predicted total degradation over 2 years under refrigerated conditions ([1]; liquid formulations at pH 3.0): 2-4% | stability during the 9 day study [2]: good stability | Degradation at 2 y ([3]; pH 2.5, 5° C.): 4.4% | Degradation at 2 y ([3]; pH 2.5, 25° C.): 30.7% | Degradation at 2 y ([3]; pH 2.5, 40° C.): 78.8% | Degradation at 2 y ([3]; pH 3, 5° C.): 1.5% | Degradation at 2 y ([3]; pH 3, 25° C.): 14.6% | Degradation at 2 y ([3]; pH 3, 40° C.): 60.0% | Degradation at 2 y ([3]; pH 3.5, 5° C.): 0.9% | Degradation at 2 y ([3]; pH 3.5, 25° C.): 10.0% | Degradation at 2 y ([3]; pH 3.5, 40° C.): 53.1% | stability over shelf-life ([3]; refrigerated conditions): adequate stability of AMG 416 over at least a two year shelf-life

— patent US11959486B2, “Stable liquid formulation of AMG 416 (etelcalcetide)” (AMGEN INC., priority 2013, dated 2024)
